For 20 compounds, EC50 and activation results are on record in patent EP3789378A1, “PIPERIDINES OR PIPERIDONES SUBSTITUTED WITH UREA AND HETEROARYL” (Grünenthal GmbH, priority 2019, dated 2021).

The first experiment addresses T1, h FPR2 (Homo sapiens, UniProt P25090).
T1 construct: expressed in transfected cells
T1 sequence (P25090 1-351): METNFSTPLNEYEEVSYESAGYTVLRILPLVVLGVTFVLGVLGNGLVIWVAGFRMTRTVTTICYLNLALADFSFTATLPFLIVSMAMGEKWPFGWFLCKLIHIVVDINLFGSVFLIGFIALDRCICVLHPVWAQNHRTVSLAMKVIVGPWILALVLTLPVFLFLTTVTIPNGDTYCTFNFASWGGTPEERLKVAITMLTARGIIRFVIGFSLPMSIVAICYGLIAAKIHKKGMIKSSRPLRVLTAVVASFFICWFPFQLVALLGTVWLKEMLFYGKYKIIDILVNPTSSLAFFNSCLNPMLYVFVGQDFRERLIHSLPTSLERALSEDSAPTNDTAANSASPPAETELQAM
As to the kind of experiment: Agonistic activity in hFPR2-Aq-CHO cells (FLIPR Calcium 5 fluorescence assay). Conditions: 11 point half log dilution, final assay concentration from 10µM. The experiment is classed as cell-based. The method, then:
After washing, the cells are plated at 10,000 cells per well in 40 µL complete medium in a 384-well sterile clear bottom black plate and incubated in a 5% CO2 incubator at 37°C for 18 hours. Plating media is removed from each well by decanting and gentle tapping before 30 µL of 0.5X Calcium 5 dye solution (0.5X FLIPR Calcium 5 dye (Molecular devices, R8186)); HBSS; 20mM HEPES; 2.5mM Probenecid; 0.025% Pluronic F-127; pH adjusted to 7.4) is added to each well and the plate is then incubated at 37°C for 30 minutes. For the assay the plate is equilibrated at room temperature for 10 minutes before placing it in the FLIPR. Compounds are dissolved in DMSO and serially diluted over an 11 point half log (3.16 fold) dilution (2 mM to 20 nM). Compounds are then diluted 1:50 in assay buffer (HBSS; 20mM HEPES; 2.5mM Probenecid; 0.05% gelatin; 0.1% BSA; pH adjusted to 7.4) just before performing the assay. Compounds are finally added to the respective wells of the cell plate (final assay concentration 10 µM to 100 pM) using the FLIPR (e.g. FLIPR-Tetra, Molecular Devices) and fluorescence readings are captured for 5 minutes. The increase in fluorescence from the basal reading in the presence of the compounds is compared with that of the control wells (wells having no compound) to calculate the activity of the compounds. The EC50 values of the compounds can be determined using e.g. Graph pad Prism software.
Assay method for measuring agonistic activity of compounds in hFPR2-Aq-CHO cell
Cryo-vial containing 6x10^6 cells (hFPR1-Gα15-CHO or hFPR2-Aq-CHO) was thawed in a 37°C water bath. Cells were suspended in 10ml of respective complete growth media (F12(1X)HAM media (Gibco; Cat#11765); 10% HI-FBS (Gibco; Cat#10082); 0.4 mg/ml Geneticin (Gibco; Cat#10131); 0.25 mg/ml Zeocin (Invitrogen; Cat#R25001)) in a 15ml centrifuge tube. The cell viability was checked with the help of Trypan Blue dye. Upon washing the cells, those were plated in a 384-well sterile clear bottom black plate (Greiner Bioone Cat# 781091) so that, each well contained 10,000 cells in 40µl complete growth media. The plate was incubated in a 5% CO2 incubator at 37°C for 18 hours. Before assay on the next day, the cell plating media was removed from each well of the plate by decanting and gentle tapping. 30µl of 0.5X Calcium 5 dye solution (0.5X FLIPR Calcium 5 dye (Molecular devices Cat# R8186); HBSS (Invitrogen; Cat#14025); 20mM HEPES (Sigma; Cat#H0887); 2.5mM Probenecid (Sigma; Cat#P8761); 0.025% Pluronic F-127 (Sigma; Cat#P2443); pH adjusted to 7.4) was added to each well. The plate was then incubated at 37°C for 30 minutes. Following which the plate was equilibrated at room temperature for 10 minutes before placing it in a 384 well FLIPR for assay. Compounds were dissolved in DMSO and serially diluted following 11 point half log (3.16 fold) dilution with a starting concentration of 2mM (Final assay concentration 10µM). Aliquots of above mentioned each dilution was mixed with assay buffer (HBSS (Invitrogen; Cat#14025); 20mM HEPES (Sigma; Cat#H0887); 2.5mM Probenecid (Sigma; Cat#P8761); 0.05% gelatin (Sigma; Cat#G1890); 0.1% BSA (Sigma; Cat#A3059); pH adjusted to 7.4) just before performing the assay. Compounds were added to the respective wells of the assay ready cell plate with the help of the FLIPR (FLIPR Tetra) and fluorescence readings were captured for 5 minutes to measure any agonistic response of the compounds. The increase in fluorescence readings from the basal reading in presence of the compounds were compared with that of the control wells (wells having no compound) to calculate the agonistic activity of the compounds. The EC50 values of the compounds were determined using the Graph pad Prism software.
In general, EC50 refers to the concentration at which the effect is half-maximal. Take `O=C(Nc1ccc(Cl)cc1)N[C@@H]1CCN(c2ccc(F)cc2)C[C@H]1c1ccc(Cl)cn1` (relative stereo) [Ex-12, trans-1-[5-chloro-1'-(4-fluoro-phenyl)-1',2',3',4',5',6'-hexahydro-[2,3']bipyridinyl-4'-yl]-3-(4-chlorophenyl)-urea]: the EC50 was 9 nM.
`COc1cnc([C@@H]2CN(CC3CCC(O)CC3)CC[C@H]2NC(=O)Nc2ccc(Cl)cc2)c(F)c1` (relative stereo) [Ex-221, trans-1-(4-chloro-phenyl)-3-[3-fluoro-1'-(4-hydroxy-cyclohexylmethyl)-5-methoxy-1',2',3',4',5',6'-hexahydro-[2,3']bipyridinyl-4'-yl]-urea]: the EC50 was 0.9 nM.
For the compound `CNCC(=O)N1CC[C@@H](NC(=O)Nc2ccc(Cl)cc2)[C@H](c2ccc(OC)cn2)C1` (relative stereo) [Ex-96, trans-1-(4-chloro-phenyl)-3-[5-methoxy-1'-(2-methylamino-acetyl)-1',2',3',4',5',6'-hexahydro-[2,3']bipyridinyl-4'-yl]-urea], the EC50 came out at 4 nM.
In the case of `COc1ccc([C@@H]2CN(C(=O)c3cnccc3C)CC[C@H]2NC(=O)Nc2ccc(Cl)cc2)nc1` (single isomer, unassigned) [Ex-53, trans-1-(4-chlorophenyl)-3-[3-(5-methoxypyridin-2-yl)-1-[(4-methylpyridin-3-yl)carbonyl]piperidin-4-yl]urea], the EC50 is 50 nM.
`COc1ccc([C@@H]2CN(CC(C)(C)O)CC[C@H]2NC(=O)Nc2cc(C)ns2)nc1` (single isomer, unassigned) [Ex-177, trans-1-[1-(2-Hydroxy-2-methyl-propyl)-3-(5-methoxy-pyridin-2-yl)-piperidin-4-yl]-3-(3-methyl-isothiazol-5-yl)-urea]: the EC50 amounted to 1.4 nM.
`Cc1cc(N2CC[C@@H](NC(=O)Nc3cc(C)ns3)[C@H](c3ccc(Cl)cn3)C2)ncn1` (relative stereo) [Ex-31, trans-1-[5-chloro-1'-(6-methyl-pyrimidin-4-yl)-1',2',3',4',5',6'-hexahydro-[2,3']bipyridinyl-4'-yl]-3-(3-methyl-isothiazol-5-yl)-urea]: the EC50 is 5 nM.
In the case of `COCCN1CC[C@@H](NC(=O)Nc2ccc(C#N)cc2)[C@H](c2ccc(OC)cn2)C1` (relative stereo) [Ex-154, trans-1-(4-Cyano-phenyl)-3-[1-(2-methoxy-ethyl)-3-(5-methoxy-pyridin-2-yl)-piperidin-4-yl]-urea], the EC50 is 10 nM.
Regarding `COc1ccc([C@@H]2CN(C(=O)c3cnccc3C(F)(F)F)CC[C@H]2NC(=O)Nc2ccc(Cl)cc2)nc1` (single isomer, unassigned) [Ex-99, trans-1-(4-chlorophenyl)-3-[3-(5-methoxypyridin-2-yl)-1-{[4-(trifluoromethyl)pyridin-3-yl]carbonyl}piperidin-4-yl]urea], the EC50 stood at 0.4 nM.
Take `COc1ccc([C@H]2CN(c3ccc(F)cc3)C(=O)C[C@H]2NC(=O)Nc2ccc(Cl)cc2)nc1` (relative stereo) [Ex-11, cis-1-(4-chlorophenyl)-3-[1-(4-fluorophenyl)-5-(5-methoxypyridin-2-yl)-2-oxopiperidin-4-yl]urea]: the concentration for a half-maximal effect (EC50) was 6 nM.
For the compound `COc1ccc([C@@H]2CN(CC(N)=O)CC[C@H]2NC(=O)Nc2ccc(Cl)cc2)nc1` (relative stereo) [Ex-129, trans-2-[4-[[(4-Chlorophenyl)-carbamoyl]amino]-3-(5-methoxy-pyridin-2-yl)-piperidin-1-yl]-acetamide], the EC50 was found to be 0.3 nM.
Regarding `COc1ccc([C@@H]2CN(C3(C(N)=O)CC3)CC[C@H]2NC(=O)Nc2ccc(Cl)cc2)nc1` (relative stereo) [Ex-181, trans-1-[4-[[(4-Chlorophenyl)-carbamoyl]amino]-3-(5-methoxy-pyridin-2-yl)-piperidin-1-yl]-cyclopropane-1-carboxylic acid amide], the EC50 turned out to be 0.9 nM.
As for `O=C(Nc1ccc(Cl)cc1)N[C@@H]1CCN(C(=O)C2CCC(O)CC2)C[C@H]1c1ccc(Cl)s1` (relative stereo) [Ex-132, trans-1-(4-Chlorophenyl)-3-[3-(5-chloro-thiophen-2-yl)-1-(4-hydroxy-cyclohexanecarbonyl)-piperidin-4-yl]-urea], the concentration for a half-maximal effect (EC50) was 39 nM.
On the same count and under the same terms, with `COc1ccc([C@@H]2CN(CCS(C)(=O)=O)CC[C@H]2NC(=O)Nc2ccccc2)nc1` (relative stereo) [Ex-160, trans-1-[3-(5-Methoxy-pyridin-2-yl)-1-(2-methylsulfonyl-ethyl)-piperidin-4-yl]-3-phenyl-urea] the figure was 88 nM; with `COc1ccc([C@@H]2CN(C(=O)C3CCC(O)CC3)CC[C@H]2NC(=O)Nc2ccc(Cl)cc2)nc1` (relative stereo) [Ex-90, trans-1-(4-chloro-phenyl)-3-[1'-(4-hydroxy-cyclohexanecarbonyl)-5-methoxy-1',2',3',4',5',6'-hexahydro-[2,3']bipyridinyl-4'-yl]-urea], 32 nM.
Still for that read-out and setting: with `COc1ccc([C@@H]2CN(Cc3cc(C(F)(F)F)on3)CC[C@H]2NC(=O)Nc2ccc(Cl)cc2)nc1` (single isomer, unassigned) [Ex-38, trans-1-(4-chlorophenyl)-3-[3-(5-methoxypyridin-2-yl)-1-{[5-(trifluoromethyl)-1,2-oxazol-3-yl]methyl}piperidin-4-yl]urea] the figure was 54 nM; with `COc1ccc([C@@H]2CN(CC3COC3)CC[C@H]2NC(=O)Nc2cc(C)ns2)nc1` (relative stereo) [Ex-204, trans-1-(5-methoxy-1'-oxetan-3-ylmethyl-1',2',3',4',5',6'-hexahydro-[2,3']bipyridinyl-4'-yl)-3-(3-methyl-isothiazol-5-yl)-urea], 4 nM; with `O=C(Nc1ccccc1)N[C@@H]1CCN(CC(F)F)C[C@H]1c1ccc(Cl)cn1` (relative stereo) [Ex-153, trans-1-[3-(5-Chloro-pyridin-2-yl)-1-(2,2-difluoro-ethyl)-piperidin-4-yl]-3-phenyl-urea], 12 nM.
Same read-out and setting: the result for `COc1ccc([C@@H]2CN(Cc3ccc(C)nc3)CC[C@H]2NC(=O)Nc2ccc(Cl)cc2)nc1` (relative stereo) [Ex-67, trans-1-(4-chlorophenyl)-3-[-3-(5-methoxypyridin-2-yl)-1-[(6-methylpyridin-3-yl)methyl]piperidin-4-yl]urea] reads 0.08 nM; that for `COc1ccc([C@@H]2CN(C(C)(C)CO)CC[C@H]2NC(=O)Nc2ccc(Cl)cc2)nc1` (relative stereo) [Ex-219, trans-1-(4-chloro-phenyl)-3-[1'-(2-hydroxy-1,1-dimethyl-ethyl)-5-methoxy-1',2',3',4',5',6'-hexahydro-[2,3']bipyridinyl-4'-yl]-urea], 38 nM.

Staying with this experiment, now noted: agonistic response at 0.1µM.
`COCCC(=O)N1CC[C@@H](NC(=O)Nc2ccc(Cl)cc2)[C@H](c2ccc(Cl)s2)C1` (relative stereo) [Ex-106, trans-1-(4-chloro-phenyl)-3-[3-(5-chloro-thiophen-2-yl)-1-(3-methoxy-propionyl)-piperidin-4-yl]-urea]: the activation at 0.1 µM stood at 41%.
